Measured values from US20050281764A1, “Use of EGF-R protein tyrosine kinase inhibitors for preventing photoaging in human skin” (priority 2000, published 2005).

Key:
c-JUN kinase = c-JUN kinase activity (phosphorylation of GST-c-jun) in cultured human keratinocytes after UV; assay type: cell-based
[1] = test system: IRAK (IL-1 Receptor-Activated Kinase); assay: IRAK phosphorylation/activity in cells in culture; assay type: cell-based
Text: IRAK (IL-1 Receptor-Activated Kinase) is a protein […] kinase (enzyme) that binds to and is activated by IL-1R (the IL-1 receptor) and in turn activates a pathway that leads to induction of c-JUN kinase, MMPs, and thus collagen degradation.

cJUN protein = cJUN protein induced by UV radiation in skin of human volunteers (FIG. 3); assay type: in vivo; details: 5% genistein in DMSO, topical, occluded 24 hours; 2 MEDs UV; biopsy 8 hours after exposure; vs vehicle-treated skin
Experimental: The same procedure as described above was repeated, except that biopsy for cJUN protein was taken 8 hours after exposure to the UV radiation. […] The inset in the figure is a Western blot showing the amount of cJUN protein in genistein-treated versus vehicle-treated skin.

MMP-1 mRNA = MMP-1 mRNA induced by UV radiation in skin of human volunteers (FIG. 4); assay type: in vivo; details: 5% genistein in DMSO, topical, occluded 24 hours; 2 MEDs UV; biopsy 24 hours after exposure; vs vehicle-treated skin
Experimental: The same procedure as described above was repeated, except that biopsy for MMP-1 mRNA was taken 24 hours after exposure to the UV radiation.

JNK = JNK activation in UV-irradiated skin of human volunteers (FIG. 2); details: occluded 24 hours
Experimental: Human volunteers, each having given informed consent, were used to determine the effect, if any, of pretreatment of their skin with an EGF-R PTK inhibitor prior to exposure of the skin to UV radiation. […] On the hip or buttock skin of volunteers, the test solution was placed (or on adjacent areas if both solutions were used), and the areas occluded for 24 hours; thereafter, the area was biopsied, or it was exposed to 2 MEDs of UV radiation and biopsied after exposure.
After the volunteers' skin was occuled for 24 hours, it was biopsied, and other areas were exposed to 2 MEDs of UV radiation and then biopsied about 4 hours thereafter.

Compound	phospho-GST-c-jun protein (c-JUN kinase; cultured human keratinocytes not exposed to UV)	phospho-GST-c-jun protein levels (c-JUN kinase; cultured human keratinocytes pretreated, then exposed to UV radiation)	phosphorylated IRAK ([1]; PD 153035-treated cells exposed to IL-1)	IRAK activity ([1]; cells in culture treated with PD 153035 alone, no challenge)	phosphorylated IRAK ([1]; cells treated with PD 153035 and then challenged with UV or EGF)	increase in the amount of cJUN protein after UV exposure (cJUN protein)	increase in MMP-1 mRNA induced by UV (MMP-1 mRNA)	skin penetration of the topical solution (JNK; 5% genistein in DMSO on human hip or buttock skin, inferred from the JNK results)	JNK activation (JNK; 5% genistein in DMSO, topical, 2 MEDs UV, biopsy about 4 hours after exposure)
COc1cc2ncnc(Nc3cccc(Br)c3)c2cc1OC [PD 153035]	baseline amount of phospho-GST-c-jun protein	comparable with the baseline levels	no reduction in phosphorylated IRAK	minimal baseline amount of IRAK activity	clearly had less phosphorylated IRAK				
O=c1c(-c2ccc(O)cc2)coc2cc(O)cc(O)c12 [genistein, 4′,5,7-trihydroxyisoflavone]						significantly inhibited	significantly inhibited	able to penetrate the skin	significantly reduced the amount of JNK activated
